Experimental data as given in patent publication US11026426B2, “Oxadiazole and phenol derivatives as antibacterial and/or herbicidal agents” (NORTHERN ILLINOIS RESEARCH FOUNDATION, priority 2017, dated 2021).

What was measured:
Bt IspD = Bt IspD (Burkholderia thailandensis, UniProt Q2SWT6); assay type: binding
Method: ITC studies were performed with a Microcal VP-ITC titration calorimeter (Malvern Instruments). Proteins were dialyzed overnight against four liters of buffer (20 mM sodium phosphate, 150 mM NaCl, pH 7.4). Compounds were dissolved in DMSO and brought to concentration with the dialysis buffer, with a maximum DMSO concentration of 10% by volume, and centrifuged at 10,000 RPM for 10 minutes. DMSO concentrations were matched between the protein and ligand. The dialysis buffer was used for all sample dilutions to ensure buffers matching between the titrant and titrate, thus minimizing the excess heat due to buffer mismatch. The Pace method was utilized for the determination of the extinction coefficients at 280 nm for Ec IspD (30,940 M^−1 cm^−1) and Bt IspD (41,940 M^−1 cm^−1). Cytidine triphosphate's extinction coefficient was 9,100 M^−1 cm^−1. The absorbance values of protein and CTP solutions were determined using the NanoDrop (in triplicate). All other compound concentrations were determined by dry weight. ITC experiments were performed with IspD in the cell and ligand in the syringe, which is at 100 times the concentration of the sample in the cell due to the low predicted affinities for IspD.
The initial injection volume was 2 μL (omitted) followed by 27 10 μL injections, every 240 seconds. Samples were run at 25° C., at pH 7.4, with a stirring speed of 307 RPM. Dilution runs were performed to allow determination of background heats caused by solution mismatch and instrument noise. Dilution runs were performed with ligand (at the same concentration as in the experiment run) in the syringe titrated into the dialysis buffer in the cell. Data were fit using OriginPro 7 with the ITC add-on by the manufacturer.
ITC studies were performed to observe the dissociation constant along with thermodynamic properties of the reactant CTP with Bt IspD.

[1] = target: T1, Mycobacterium tuberculosis IspD (MtIspD) (Mycobacterium tuberculosis, UniProt P9WKG9); assay: Thermal shift assay against MtIspD; assay type: binding
T1 sequence (P9WKG9 1-231): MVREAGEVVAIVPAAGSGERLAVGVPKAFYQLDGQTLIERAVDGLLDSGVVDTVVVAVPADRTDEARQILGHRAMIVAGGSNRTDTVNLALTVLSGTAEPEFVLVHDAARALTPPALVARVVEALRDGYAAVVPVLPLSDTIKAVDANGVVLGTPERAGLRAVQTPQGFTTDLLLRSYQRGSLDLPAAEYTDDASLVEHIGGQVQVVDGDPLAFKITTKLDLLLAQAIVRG

[2] = target: Lycopersicon esculentum IspE (LeIspE) (Solanum lycopersicum, UniProt P93841); assay: Thermal shift assay against LeIspE; assay type: binding
[3] = target: Mycobacterium paratuberculosis IspD (MpIspD) (Mycolicibacterium paratuberculosis, UniProt Q743W5); assay: Thermal shift assay against MpIspD; assay type: binding; details: MpIspD
lettuce seeds = assay: Lettuce leaf assay; assay type: in vivo; set-up: key: 0 (no effect); 5(complete inhibition or bleaching); details: ranking 0-5
Summary of the method: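 Qualitative assay: compounds in volatile organic solvent applied to filter paper in a petri dish, solvent evaporated, lettuce seeds and 5 mL water added to give test concentrations. Germination, root development and leaf bleaching scored days 3 and 4, ranked 0 (no effect) to 5 (complete inhibition or bleaching).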

AtIspD = AtIspD (Arabidopsis thaliana, UniProt P69834); assay: University of Hamburg photometric enzymatic inhibition assay AtIspD; assay type: biochemical; details: read-out: AtIspD IC50
Summary of the method: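 Coupled photometric assay: 2.4 mU AtIspD with 1 mM (2R,3S)-2,3-dihydroxy-4-oxopentyl phosphate, 2.1 mM CTP, excess IspE (0.4 U), ATP, pyruvate kinase/lactate dehydrogenase and 460 μM NADH. Run in 100 mM Tris-HCl pH 8.0, 10 mM MgCl2, 1 mM DTT, 1.1% DMSO at 27 °C, monitored photometrically.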

LeIspE = LeIspE (Solanum lycopersicum, UniProt P93841); assay: University of Hamburg photometric enzymatic inhibition assay LeIspE; assay type: biochemical, Lycopersicon esculentum; details: read-out: LeIspE IC50
Summary of the method: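 Photometric coupled assay with pyruvate kinase/lactate dehydrogenase following NADH (460 μM). Mix: 100 mM Tris-HCl pH 8.0, 10 mM MgCl2, 1 mM DTT, 2.5 mM phosphoenolpyruvate, 2 mM ATP, 1 mM 4-diphosphocytidyl-2-C-methylerythritol, 1.1% DMSO, 2.4 mU IspE; incubated at 27° C.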

AtIspF = AtIspF (Arabidopsis thaliana, UniProt Q9CAK8); assay: University of Hamburg photometric enzymatic inhibition assay AtIspF; assay type: biochemical; details: read-out: AtIspF IC50
Summary of the method: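 Coupled photometric assay (CMP kinase/pyruvate kinase/lactate dehydrogenase, NADH consumption) with 2.4 mU AtIspF and 1 mM 4-diphosphocytidyl-2C-methylerythritol 2-phosphate, 2 mM ATP, in 100 mM Tris-HCl pH 8.0, 10 mM MgCl2, 1.1% DMSO. Monitored at 27 °C.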

[4] = test system: Burkholderia thailandensis; assay type: cell-based; details: preliminary screening, score 0-3
Mycobacterium smegmatis = assay: Antibacterial preliminary screening MS; assay type: cell-based; details: score 0-3; note: key: 0 represents no inhibition; 3 is comparable to commercial antibiotic control
Corynebacterium xerosis = assay: Antibacterial preliminary screening CX; assay type: cell-based; details: score 0-3; note: key: 0 represents no inhibition; 3 is comparable to commercial antibiotic control
[5] = test system: Corynebacterium pseudodiphtheriae; assay: Antibacterial preliminary screening CP; assay type: cell-based; details: score 0-3;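 note: 0 is no inhibition and 3 matches the commercial antibiotic control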
Escherichia coli = assay: Antibacterial preliminary screening EC; assay type: cell-based; details: score 0-3; note: key: 0 represents no inhibition; 3 is comparable to commercial antibiotic control
Klebsiella pneumonia = assay: Antibacterial preliminary screening KP; assay type: cell-based; details: score 0-3; note: key: 0 represents no inhibition; 3 is comparable to commercial antibiotic control
Micrococcus luteus = assay: Antibacterial preliminary screening ML; assay type: cell-based; details: score 0-3; note: key: 0 represents no inhibition; 3 is comparable to commercial antibiotic control
Bacillus cereus = assay: Antibacterial preliminary screening BC; assay type: cell-based; details: score 0-3; note: key: 0 represents no inhibition; 3 is comparable to commercial antibiotic control
Pseudomonas aeruginosa = assay: Antibacterial preliminary screening PA; assay type: cell-based; details: score 0-3; note: key: 0 represents no inhibition; 3 is comparable to commercial antibiotic control
E. coli IspD = E. coli IspD (Escherichia coli, UniProt Q46893); assay: IspD assay (Washington University, EnzCheck phosphate) EcIspD; assay type: biochemical; details: up to 100 μM; bar graph at 12.5 and 100 μM
Method: Compounds were tested against IspD from Escherichia coli and Plasmodium falciparum. The assay measured activity through monitoring phosphate levels released by IspD enzyme over time using conditions published previously. The assay utilized the EnzCheck phosphate assay kit to quantify phosphate released by IspD. Reactions were done in a 96-well plate with each well containing a final volume of 50 μL. Concentrations of reagents were as follows: 100 mM NaCl, 25 mM Tris at pH 7.0, 7.5 mM MgCl2, 1 mM dithiothreitol, 1 U/mL purine nucleoside phosphorylase, and 0.1 U/mL yeast inorganic pyrophosphatase, 50 μM CTP, 500 μM MEP, 0.1% DMSO, and 0.2 mM 2-Amino-6-mercapto-7-methyl puring riboside. Reactions with EclspD used 2 nM EclspD and reactions with PfIspD used 50 nM PfIspD. Reactions involved pre-warming the enzyme and buffers to 37° C. with different inhibitor concentrations followed by the addition of the purified MEP substrate. Absorbance was measured at 360 nm over time and values were used to create regression analysis curves from three trials and values were converted to (μM MEP)(μM enzyme)^−1s^−1 using a standard phosphate curve. These values were then used to identify percent activity compared to enzyme activity without the inhibitor. Results are indicated.

P. falciparum IspD = P. falciparum IspD (Plasmodium falciparum, UniProt Q8I273); assay: IspD assay (Washington University, EnzCheck phosphate) PfIspD; assay type: biochemical
Sequence of P. falciparum IspD (Q8I273 entry or part of it): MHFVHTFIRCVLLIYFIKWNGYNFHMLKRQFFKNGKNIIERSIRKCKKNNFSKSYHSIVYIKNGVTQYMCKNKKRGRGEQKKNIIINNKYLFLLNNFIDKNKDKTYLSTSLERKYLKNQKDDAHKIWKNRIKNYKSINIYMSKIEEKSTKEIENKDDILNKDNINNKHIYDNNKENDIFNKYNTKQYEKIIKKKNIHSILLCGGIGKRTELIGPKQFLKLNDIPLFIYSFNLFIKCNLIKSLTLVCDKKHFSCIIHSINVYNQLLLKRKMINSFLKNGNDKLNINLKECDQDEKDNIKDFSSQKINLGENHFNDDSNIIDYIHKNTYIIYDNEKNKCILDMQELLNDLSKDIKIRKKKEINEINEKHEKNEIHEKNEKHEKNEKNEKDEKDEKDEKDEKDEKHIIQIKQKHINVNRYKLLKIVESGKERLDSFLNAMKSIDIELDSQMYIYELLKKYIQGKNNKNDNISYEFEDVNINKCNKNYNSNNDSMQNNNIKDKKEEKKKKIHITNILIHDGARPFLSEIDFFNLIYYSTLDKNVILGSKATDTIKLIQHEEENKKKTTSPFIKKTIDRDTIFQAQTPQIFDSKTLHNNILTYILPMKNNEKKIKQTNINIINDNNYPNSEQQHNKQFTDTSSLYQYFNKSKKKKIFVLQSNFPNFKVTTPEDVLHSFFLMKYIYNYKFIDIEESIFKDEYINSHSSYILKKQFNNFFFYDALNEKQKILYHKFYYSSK

Sequence of Lycopersicon esculentum IspE (LeIspE) (P93841 89-401): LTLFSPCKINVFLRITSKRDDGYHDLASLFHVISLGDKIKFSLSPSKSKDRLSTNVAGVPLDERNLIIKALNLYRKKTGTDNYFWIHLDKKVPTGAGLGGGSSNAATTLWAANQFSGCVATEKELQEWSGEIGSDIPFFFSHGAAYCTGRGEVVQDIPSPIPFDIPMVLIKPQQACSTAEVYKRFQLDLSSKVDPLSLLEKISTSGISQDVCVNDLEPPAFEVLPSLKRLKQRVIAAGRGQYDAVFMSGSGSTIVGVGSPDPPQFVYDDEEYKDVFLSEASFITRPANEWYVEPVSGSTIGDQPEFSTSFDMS
Sequence of LeIspE (P93841 89-401): as above
Sequence of E. coli IspD (Q46893 whole entry): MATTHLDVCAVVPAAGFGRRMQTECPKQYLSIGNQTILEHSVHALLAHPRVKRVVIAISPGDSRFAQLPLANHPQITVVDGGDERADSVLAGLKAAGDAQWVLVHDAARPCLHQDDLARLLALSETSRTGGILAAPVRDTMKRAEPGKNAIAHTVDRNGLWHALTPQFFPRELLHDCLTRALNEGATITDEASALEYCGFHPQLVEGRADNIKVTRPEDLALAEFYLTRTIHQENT
Sequence of AtIspF (Q9CAK8 53-231): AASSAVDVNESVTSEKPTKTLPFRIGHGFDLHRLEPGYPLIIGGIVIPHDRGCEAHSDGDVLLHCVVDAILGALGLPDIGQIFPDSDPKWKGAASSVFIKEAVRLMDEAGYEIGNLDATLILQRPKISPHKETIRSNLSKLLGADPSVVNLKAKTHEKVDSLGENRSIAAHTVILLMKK
Sequence of AtIspD (P69834 62-302): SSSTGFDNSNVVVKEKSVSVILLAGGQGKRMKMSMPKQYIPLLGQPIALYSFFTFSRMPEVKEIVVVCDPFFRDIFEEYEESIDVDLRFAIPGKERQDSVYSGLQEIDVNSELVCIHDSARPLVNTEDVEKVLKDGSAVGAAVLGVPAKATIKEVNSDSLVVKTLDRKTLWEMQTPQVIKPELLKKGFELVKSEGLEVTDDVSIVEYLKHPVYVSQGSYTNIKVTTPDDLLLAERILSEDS
Sequence of Bt IspD (Q2SWT6 whole entry): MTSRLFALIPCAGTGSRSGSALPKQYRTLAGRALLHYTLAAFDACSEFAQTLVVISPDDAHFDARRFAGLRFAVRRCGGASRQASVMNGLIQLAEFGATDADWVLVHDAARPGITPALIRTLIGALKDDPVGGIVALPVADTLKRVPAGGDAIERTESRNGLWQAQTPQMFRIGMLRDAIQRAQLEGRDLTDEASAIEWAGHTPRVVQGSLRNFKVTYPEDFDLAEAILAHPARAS
Sequence of Mycobacterium paratuberculosis IspD (MpIspD) (Q743W5 whole entry): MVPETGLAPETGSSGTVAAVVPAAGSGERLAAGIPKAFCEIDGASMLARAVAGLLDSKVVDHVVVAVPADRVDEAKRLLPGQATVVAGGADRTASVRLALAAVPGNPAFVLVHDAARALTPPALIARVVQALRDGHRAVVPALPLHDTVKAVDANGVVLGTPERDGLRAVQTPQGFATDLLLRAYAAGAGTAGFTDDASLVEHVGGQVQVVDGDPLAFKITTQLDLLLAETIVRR

SMILES | MtIspD melting temp [1] [°C] | LeIspE melting point change [2] [°C] | LeIspE melting temp [2] [°C] | Bleaching (lettuce seeds; 0.5 mM) | Germination (lettuce seeds; 0.5 mM) | Root Dev. (lettuce seeds; 0.5 mM) | Bleaching (lettuce seeds; 1.0 mM) | IC50 (AtIspD) [mM] | IC50 (LeIspE) [µM] | IC50 (AtIspF) [mM] | BT score [4] | MS score (Mycobacterium smegmatis) | CX score (Corynebacterium xerosis) | CP score [5] | EC score (Escherichia coli) | KP score (Klebsiella pneumonia) | ML score (Micrococcus luteus) | BC score (Bacillus cereus) | PA score (Pseudomonas aeruginosa) | melting point [°C] | other results
Nc1ccn([C@@H]2O[C@H](COP(=O)(O)OP(=O)(O)OP(=O)(O)O)[C@@H](O)[C@H]2O)c(=O)n1 [CTP, Cytidine triphosphate] |  |  |  |  |  |  |  |  |  |  |  |  |  |  |  |  |  |  |  |  | KD app (ITC, words) (Bt IspD): in the millimolar range; entropic contribution −TΔS (ITC) (Bt IspD): 5.6±1.838; ΔH° (ITC) (Bt IspD; stoichiometry fixed at two CTPs per dimer): -6.991 ± 1.749 kcal/mol
FC(F)(F)c1nnc(-c2cc3ccccc3[nH]2)o1 [HGN-211, 2-(1H-indol-2-yl)-5-(trifluoromethyl)-1,3,4-oxadiazole] | 49.3 | −0.75 | 48.75 | 0 | 1 | 0 | 0 | > 1 | > 1000 | > 1 | 0 | 0 | 0 | 0 | 0 | 0 | 0 | 0 | 0 | 182 to 184 | MtIspD melting point change [1]: 1.3 °C; increase in melting point over HGN-207 [3]: 0.3 °C; Germination (lettuce seeds; 1.0 mM): 2; Root Dev. (lettuce seeds; 1.0 mM): 0
Clc1ccc(-c2nnc(-c3cc4ccccc4[nH]3)o2)cc1 [HGN-213, 2-(4-chlorophenyl)-5-(1H-indol-2-yl)-1,3,4-oxadiazole] | 48.8 | −2.00 | 47.50 |  |  |  |  | 0.49 | 326 ± 29 | > 1 | 0 | 0 | 0 | 0 | 0 | 0 | 0 | 0 | 0 | 265 to 270 | MtIspD melting point change [1]: 0.8 °C; Bleaching (lettuce seeds; 0.2 mM): 0; Germination (lettuce seeds; 0.2 mM): 1; Root Dev. (lettuce seeds; 0.2 mM): 0; inhibition of E. coli IspD activity (E. coli IspD): some activity; IC50 (P. falciparum IspD): ~100 µM
FC(F)(F)c1ccc(-c2nnc(-c3cc4ccccc4[nH]3)o2)cc1 [HGN-214, 2-(1H-indol-2-yl)-5-(4-(trifluoromethyl)phenyl)-1,3,4-oxadiazole] | 49.8 | −1.00 | 48.50 | 0 | 1 | 0 | 0 | > 1 | 269 ± 23 | > 1 | 0 | 0 | 0 | 0 | 0 | 0 | 0 | 0 | 0 | 258 to 260 | Bleaching (lettuce seeds; 0.2 mM): 0; Germination (lettuce seeds; 0.2 mM): 0; Root Dev. (lettuce seeds; 0.2 mM): 0; Germination (lettuce seeds; 1.0 mM): 3; Root Dev. (lettuce seeds; 1.0 mM): 0; inhibition of E. coli IspD activity (E. coli IspD): some activity; IC50 (P. falciparum IspD): ~100 µM
c1ccc2[nH]c(-c3nnc(C4CCCC4)o3)cc2c1 [HGN-252, 2-cyclopentyl-5-(1H-indol-2-yl)-1,3,4-oxadiazole] | 49.5 | −2.50 | 47.00 | 0 | 1 | 0 | 0 | > 1 | > 1000 | > 1 | 0 | 0 | 0 | 0 | 0 | 0 | 0 | 0 | 0 | 150 to 154 | Germination (lettuce seeds; 1.0 mM): 2; Root Dev. (lettuce seeds; 1.0 mM): 0; inhibition of E. coli IspD activity (E. coli IspD): significant activity
